Experimental data reported in PubChem BioAssay AID256 (DTP/NCI, 2004).
Toxic doses and inconclusive results are not listed.

Test system: CD2F1 mice, L1210 leukemia ip, survival T/C
Test: NCI In Vivo Anticancer Drug Screen. Data for tumor model L1210 Leukemia (intraperitoneal) in CD2F1 (CDF1) mice
Settings: higher = longer survival
Summary of the method: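 Activity against a transplanted murine tumor was judged by comparing the compound group with a vehicle group. The outcome in the treated animals was divided by that in the controls.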

[1] = endpoint: mean survival time, dose: 100.0 mg/kg/injection, schedule: Q01DX001 (ip), vehicle: saline
[2] = endpoint: mean survival time, dose: 200.0 mg/kg/injection, schedule: Q01DX001 (ip), vehicle: saline
[3] = endpoint: mean survival time, dose: 400.0 mg/kg/injection, schedule: Q01DX001 (ip), vehicle: saline
[4] = endpoint: mean survival time, dose: 100.0 mg/kg/injection, schedule: Q01DX009 (ip), vehicle: saline with Tween-80
[5] = endpoint: mean survival time, dose: 200.0 mg/kg/injection, schedule: Q01DX009 (ip), vehicle: saline with Tween-80
[6] = endpoint: mean survival time, dose: 25.0 mg/kg/injection, schedule: Q01DX001 (ip), vehicle: saline with Tween-80
[7] = endpoint: mean survival time, dose: 50.0 mg/kg/injection, schedule: Q04DX002 (ip), vehicle: saline with Tween-80
[8] = endpoint: mean survival time, dose: 100.0 mg/kg/injection, schedule: Q04DX002 (ip), vehicle: saline with Tween-80
[9] = endpoint: mean survival time, dose: 200.0 mg/kg/injection, schedule: Q04DX002 (ip), vehicle: saline with Tween-80
[10] = endpoint: mean survival time, dose: 400.0 mg/kg/injection, schedule: Q04DX002 (ip), vehicle: saline with Tween-80
[11] = endpoint: mean survival time, dose: 12.5 mg/kg/injection, schedule: Q01DX009 (ip), vehicle: other
[12] = endpoint: mean survival time, dose: 25.0 mg/kg/injection, schedule: Q01DX009 (ip), vehicle: other
[13] = endpoint: mean survival time, dose: 50.0 mg/kg/injection, schedule: Q01DX009 (ip), vehicle: other
[14] = endpoint: mean survival time, dose: 100.0 mg/kg/injection, schedule: Q01DX009 (ip), vehicle: other
[15] = endpoint: mean survival time, dose: 200.0 mg/kg/injection, schedule: Q01DX009 (ip), vehicle: other
[16] = endpoint: mean survival time, dose: 100.0 mg/kg/injection, schedule: Q04DX003 (ip), vehicle: saline
[17] = endpoint: mean survival time, dose: 200.0 mg/kg/injection, schedule: Q04DX003 (ip), vehicle: saline
[18] = endpoint: mean survival time, dose: 400.0 mg/kg/injection, schedule: Q04DX003 (ip), vehicle: saline
[19] = endpoint: mean survival time, dose: 100.0 mg/kg/injection, schedule: Q04DX003 (ip), vehicle: saline with Tween-80
[20] = endpoint: mean survival time, dose: 200.0 mg/kg/injection, schedule: Q04DX003 (ip), vehicle: saline with Tween-80
[21] = endpoint: mean survival time, dose: 400.0 mg/kg/injection, schedule: Q04DX003 (ip), vehicle: saline with Tween-80
[22] = endpoint: mean survival time, dose: 100.0 mg/kg/injection, schedule: Q01DX001 (ip), vehicle: saline with Tween-80

NCCNc1ccc(NCCN)c2c1C(=O)c1ccccc1C2=O
T/C (endpoint: mean survival time, dose: 2.0 mg/kg/injection, schedule: Q01DX009 (ip), vehicle: acid diluted with saline): 159 % of control | T/C (endpoint: mean survival time, dose: 4.0 mg/kg/injection, schedule: Q01DX009 (ip), vehicle: acid diluted with saline): 175 % of control | T/C (endpoint: mean survival time, dose: 6.25 mg/kg/injection, schedule: Q01DX009 (ip), vehicle: distilled water + Tween-80): 156 % of control | T/C (endpoint: mean survival time, dose: 8.0 mg/kg/injection, schedule: Q01DX009 (ip), vehicle: acid diluted with saline): 345 % of control | T/C (endpoint: mean survival time, dose: 12.5 mg/kg/injection, schedule: Q01DX009 (ip), vehicle: distilled water + Tween-80): 227 % of control | T/C (endpoint: mean survival time, dose: 16.0 mg/kg/injection, schedule: Q01DX009 (ip), vehicle: acid diluted with saline): 98 % of control | T/C (endpoint: mean survival time, dose: 25.0 mg/kg/injection, schedule: Q01DX009 (ip), vehicle: distilled water + Tween-80): 272 % of control

CC1=CSC2=NC(=O)CCN12
T/C [1]: 93 % of control | T/C [2]: 100 % of control | T/C [3]: 90 % of control

O=C(NCc1ccco1)C1COc2ccccc2O1 (configuration not stated)
T/C (endpoint: median survival time, dose: 25.0 mg/kg/injection, schedule: Q01DX009 (ip), vehicle: Klucel (hydroxypropylcellulose) (HPC)): 103 % of control | T/C (endpoint: median survival time, dose: 50.0 mg/kg/injection, schedule: Q01DX009 (ip), vehicle: Klucel (hydroxypropylcellulose) (HPC)): 101 % of control | T/C (endpoint: median survival time, dose: 100.0 mg/kg/injection, schedule: Q01DX009 (ip), vehicle: Klucel (hydroxypropylcellulose) (HPC)): 103 % of control

[Cl][Pt+2][Cl].[NH-]C1CCCCC1C1CCCCC1[NH-] (configuration not stated)
T/C (endpoint: mean survival time, dose: 6.25 mg/kg/injection, schedule: Q04DX003 (ip), vehicle: distilled water + Tween-80): 123 % of control | T/C (endpoint: mean survival time, dose: 25.0 mg/kg/injection, schedule: Q04DX003 (ip), vehicle: distilled water + Tween-80): 173 % of control | T/C (endpoint: mean survival time, dose: 100.0 mg/kg/injection, schedule: Q04DX003 (ip), vehicle: distilled water + Tween-80): 86 % of control

CC(C)(O)C#Cc1ccccc1
T/C [4]: 98 % of control | T/C [5]: 98 % of control | T/C (endpoint: mean survival time, dose: 400.0 mg/kg/injection, schedule: Q01DX009 (ip), vehicle: saline with Tween-80): 96 % of control

COC1=C(C#N)CC2(C)C(CCC3C2CCC2(C)C(C(C)CCCC(C)C)CCC32)C1 (configuration not stated)
T/C (endpoint: mean survival time, dose: 100.0 mg/kg/injection, schedule: Q04DX003 (ip), vehicle: saline sonified): 92 % of control | T/C (endpoint: mean survival time, dose: 200.0 mg/kg/injection, schedule: Q04DX003 (ip), vehicle: saline sonified): 93 % of control | T/C (endpoint: mean survival time, dose: 400.0 mg/kg/injection, schedule: Q04DX003 (ip), vehicle: saline sonified): 92 % of control

NNC(=O)Nc1ccccc1
T/C (endpoint: mean survival time, dose: 6.25 mg/kg/injection, schedule: Q01DX001 (ip), vehicle: saline with Tween-80): 102 % of control | T/C (endpoint: mean survival time, dose: 12.5 mg/kg/injection, schedule: Q01DX001 (ip), vehicle: saline with Tween-80): 102 % of control | T/C [6]: 97 % of control

O=C(OC1(c2c(F)c(F)c(F)c(F)c2F)C2C=CC1CC2)c1ccc([N+](=O)[O-])cc1 (configuration not stated)
T/C [7]: 102 % of control | T/C [8]: 105 % of control | T/C [9]: 98 % of control | T/C [10]: 90 % of control

CN1CC[C@]23c4c5ccc(O)c4O[C@H]2C(=O)CC[C@H]3[C@H]1C5
T/C (endpoint: mean survival time, dose: 12.5 mg/kg/injection, schedule: Q01DX009 (ip), vehicle: saline): 95 % of control | T/C (endpoint: mean survival time, dose: 25.0 mg/kg/injection, schedule: Q01DX009 (ip), vehicle: saline): 102 % of control | T/C (endpoint: mean survival time, dose: 50.0 mg/kg/injection, schedule: Q01DX009 (ip), vehicle: saline): 93 % of control

O=c1cc(CO)[nH]c(=O)[nH]1
T/C [11]: 91 % of control | T/C [12]: 94 % of control | T/C [13]: 91 % of control | T/C [14]: 92 % of control | T/C [15]: 97 % of control

CCC12OC3(CC)C4C(=O)OC1C1(CC)OC4(CC)C3C(=O)OC21
T/C [1]: 103 % of control | T/C [16]: 102 % of control | T/C [2]: 102 % of control | T/C [17]: 100 % of control | T/C [3]: 96 % of control | T/C [18]: 94 % of control

O=C(O)COc1ccc(F)cc1Br
T/C [8]: 93 % of control | T/C [9]: 93 % of control | T/C [10]: 93 % of control

O=C(Nc1cccc(S(=O)(=O)F)c1)c1cccc([N+](=O)[O-])c1
T/C [19]: 105 % of control | T/C [20]: 102 % of control | T/C [21]: 96 % of control

O=C1N(Cl)C2C(N1Cl)N(Cl)C(=O)N2Cl (configuration not stated)
T/C (endpoint: mean survival time, dose: 25.0 mg/kg/injection, schedule: Q04DX003 (ip), vehicle: saline with Tween-80): 98 % of control | T/C (endpoint: mean survival time, dose: 50.0 mg/kg/injection, schedule: Q04DX003 (ip), vehicle: saline with Tween-80): 104 % of control | T/C [19]: 89 % of control

CCCCC(C(=O)OCC)C(=O)c1ccccc1 (configuration not stated) (tested in a mixture with another compound)
T/C [19]: 100 % of control

CNC(C)COc1ccc(O)cc1 (configuration not stated)
T/C (endpoint: mean survival time, dose: 100.0 mg/kg/injection, schedule: Q01DX009 (ip), vehicle: saline): 110 % of control | T/C [16]: 108 % of control | T/C (endpoint: mean survival time, dose: 200.0 mg/kg/injection, schedule: Q01DX009 (ip), vehicle: saline): 110 % of control | T/C [17]: 104 % of control | T/C [18]: 114 % of control

Nc1cccc(CC(=O)Nc2cccc(S(=O)(=O)F)c2)c1
T/C [22]: 96 % of control | T/C (endpoint: mean survival time, dose: 200.0 mg/kg/injection, schedule: Q01DX001 (ip), vehicle: saline with Tween-80): 95 % of control | T/C (endpoint: mean survival time, dose: 400.0 mg/kg/injection, schedule: Q01DX001 (ip), vehicle: saline with Tween-80): 90 % of control

COc1cc(/C=N/NC(=O)CN(C)C)cc(OC)c1N(CCCl)CCCl
T/C (endpoint: mean survival time, dose: 50.0 mg/kg/injection, schedule: Q01DX009 (ip), vehicle: Klucel (hydroxypropylcellulose) (HPC)): 122 % of control | T/C (endpoint: mean survival time, dose: 100.0 mg/kg/injection, schedule: Q01DX009 (ip), vehicle: Klucel (hydroxypropylcellulose) (HPC)): 113 % of control

CCOC(=O)C(C#N)c1ccccc1 (configuration not stated)
T/C [8]: 94 % of control | T/C [9]: 94 % of control

O=C(CCC(O)c1ccccc1)c1ccccc1 (configuration not stated)
T/C [7]: 97 % of control | T/C [8]: 91 % of control | T/C [9]: 91 % of control

CC(=O)OCC1OC2OC(C)(OC(C)(C)C)OC2C(OC(C)=O)C1OC(C)=O (configuration not stated)
T/C [11]: 97 % of control | T/C [12]: 95 % of control | T/C [13]: 97 % of control | T/C [14]: 103 % of control | T/C [15]: 98 % of control

Cc1ccc(OP(=O)(c2ccccc2)c2ccccc2)cc1
T/C [19]: 98 % of control | T/C [20]: 100 % of control | T/C [21]: 100 % of control

Cc1ccccc1CS
T/C [4]: 93 % of control | T/C [19]: 103 % of control | T/C [5]: 94 % of control | T/C [20]: 100 % of control | T/C [21]: 104 % of control

CNC(=O)Nc1nnnc2ccccc12
T/C [19]: 95 % of control

O=[N+]([O-])c1ccc(F)c(Cl)c1
T/C [12]: 96 % of control | T/C [13]: 100 % of control | T/C [14]: 96 % of control

c1cc[n+](Cc2ccc3ccccc3c2)c(C2OCCO2)c1
T/C (endpoint: mean survival time, dose: 5.0 mg/kg/injection, schedule: Q01DX009 (ip), vehicle: saline): 102 % of control | T/C (endpoint: mean survival time, dose: 10.0 mg/kg/injection, schedule: Q01DX009 (ip), vehicle: saline): 102 % of control | T/C (endpoint: mean survival time, dose: 20.0 mg/kg/injection, schedule: Q01DX009 (ip), vehicle: saline): 105 % of control

Oc1cc2ccc3c(c2cc1O)CCc1cn[nH]c1-3
T/C [6]: 104 % of control | T/C (endpoint: mean survival time, dose: 50.0 mg/kg/injection, schedule: Q01DX001 (ip), vehicle: saline with Tween-80): 111 % of control | T/C [22]: 92 % of control

Cc1nc(CCCCCCCC(=O)O)ccc1O
T/C (endpoint: mean survival time, dose: 100.0 mg/kg/injection, schedule: Q04DX002 (ip), vehicle: saline): 94 % of control | T/C (endpoint: mean survival time, dose: 200.0 mg/kg/injection, schedule: Q04DX002 (ip), vehicle: saline): 97 % of control | T/C (endpoint: mean survival time, dose: 400.0 mg/kg/injection, schedule: Q04DX002 (ip), vehicle: saline): 109 % of control

C[C@]12CCCC[C@@H]1CC[C@@H]1[C@@H]2CC[C@]2(C)[C@@H](N(CCO)CCCO)CC[C@@H]12
T/C (endpoint: mean survival time, dose: 100.0 mg/kg/injection, schedule: Q04DX003 (sc), vehicle: steriod suspending solution): 98 % of control | T/C (endpoint: mean survival time, dose: 200.0 mg/kg/injection, schedule: Q04DX003 (sc), vehicle: steriod suspending solution): 91 % of control | T/C (endpoint: mean survival time, dose: 400.0 mg/kg/injection, schedule: Q04DX003 (sc), vehicle: steriod suspending solution): 107 % of control
